System: vaginal microbiota (PB-primer target groups)
Assay: PB-qPCR of acute BV and post-tinidazole vaginal lavages (Tables 3A, 3B)
Type: in vivo, human
Details: for Post-Tinidazole PB-qPCR Cells/sample: post-tinidazole vaginal lavage
Experimental: DNA extraction. Bacteria were lysed from vaginal lavages by adding sodium hydroxide and sodium dodecyl sulfate to final concentrations of 133 mM and 10% respectively, followed by vigorous reciprocal shaking at room temperature for 30 m. This lysate was then extracted with phenol:chloroform:isoamyl alcohol (25:24:1) then chloroform. The DNA was precipitated with an equal volume of 100% isopropanol, washed once with 70% isopropanol, and dissolved in 100 μl TE (10 mM Tris pH 8, 1 mM EDTA). DNA was stored at −20° C. until further use. […] DNA was amplified from extracts of reference bacterial species as single colonies, using QUICKEXTRACT™ Plant DNA 144 Extraction Solution (Epicentre, Madison, WI), modified by heating at 65° C. for 30 m, 95° C. for 1 m.
PCR primers, blockers, and amplification. Standard PCR was performed on ROBOCYCLER™ Gradient 96 (Stratagene). Real-time PCR was performed using Cepheid SMARTCYCLER™ or LIGHTCYCLER® 480 II (Roche Applied Sciences) thermal cyclers. The reaction utilized individually optimized amounts of each primer, 250 μM dNTPs (Invitrogen), 20 mM Tris pH 8.3, 3 mM MgCl2, 50 mM KCl, and Taq DNA polymerase, 5 units from either GeneChoice or New England Biolabs, 2.5 units GenScript Green Taq, or 1 unit of glycerol-free Taq DNA polymerase from APEX (Genesee Scientific) per 100 μl reaction volume, including either 0.073×SYBR® Green I Nucleic Acid Stain (FMC Bio Products) or 0.25 μl of 15 μM SYTO9 (Invitrogen) for qPCR reactions.
Calculation of titers and percent compositions. Cp values from reactions in LIGHTCYCLER® 480 II Real-Time PCR System (Roche Applied Science) were converted to molecules by comparison to Cp values of a standard curve from the same run derived from four to eight 10-fold serial dilutions of an amplicon quantified using the QUANT-IT® assay (Invitrogen). Molecules per μl were converted to cells per 5 ml lavage, assuming an average of five ribosomal genes per cell and proportioned to the ratio of the volume of the lavage used in the DNA prep and its final volume.
If the titer of the sample was below the limit of detection for the PB assay, nested PCR on a 24-cycle amplicon from a longer broad-spectrum 16S amplicon was performed (Tables 3A-3D). If the nested PCR was negative, the titer of the original sample was assumed to be 0; if the nested PCR was positive, the titer was reported as below the concentration of most dilute but still positive sample in each specific run. Amplicons were sequenced to verify that targeted species were amplified. Mixed amplicons were cloned into pGEM-T™ easy (Promega) and approximately 10 of the resultant clones sequenced. Percentages were calculated by dividing the titer from each PB by the sum of the titers from all the PB primers.
For Tables 3A-3D, titers were determined by qPCR using standard curves and converted to approximate cells/sample as described herein. Primers BU4&BU6 were used alone for the 16S-C&S but the extended set (Table 1) was used for qPCR. Species were identified by Sanger sequencing of either uncloned amplicons, in cases where a single species was dominant for the target group, or by sequencing small numbers of E. coli clones derived from the amplicons if mixed. In silico performance was determined using the RDP website; Target hits is the number of database entries of “good” quality >1200 bp within the target grouping; Total hits is the total number of these hits in the RDP database; Specificity=target/total hits; Total target number=number of RDP entries in the target group; Target coverage=target hits/target number. Notes: uc=uncultured; n.d.=none detected; n.a.=not applicable; t=no subuniversal primer; *=detected by nested PCR only, reporting limit of detection; [ ]=identity; ˜=novel species, closest hit listed. […] 1 min and ended with 72° C. 5 min; ***=excludes ˜⅓ of Clostridium XI; **** performance not determined, showing forward primer only. […]

CCS(=O)(=O)CCn1c([N+](=O)[O-])cnc1C [tinidazole]
Composition of post-tinidazole sample (PB-qPCR, FIG. 5B): dominated by L. iners
Fold higher G. vaginalis in the BV sample compared to post-tinidazole (one patient, vaginal lavages): approximately 10^4 fold
Fold lower titer of L. iners in the acute BV sample compared to post-tinidazole (one patient, vaginal lavages): approximately 20 fold
Post-Tinidazole PB-qPCR Cells/sample (target Actinobacteridae): 5.7E+04 Cells/sample
Post-Tinidazole PB-qPCR Cells/sample (target Bacteroidaceae/uc Prevotellaceae): 4.7E+06 Cells/sample
Post-Tinidazole PB-qPCR Cells/sample (target Beta-Proteobacteria): 2.6E+04 Cells/sample
Post-Tinidazole PB-qPCR Cells/sample (target Broad-spectrum (BU4L/BU6R)): 1.4E+10 Cells/sample
Post-Tinidazole PB-qPCR Cells/sample (target Clostridiales Incertae Sedis XI): 0 Cells/sample
Post-Tinidazole PB-qPCR Cells/sample (target Clostridiales Incertae Sedis XII): 5.5E+03 Cells/sample
Post-Tinidazole PB-qPCR Cells/sample (target Coriobacteridae): 4.0E+04 Cells/sample
Post-Tinidazole PB-qPCR Cells/sample (target Cross-family Clostridia): 3.9E+03 Cells/sample
Post-Tinidazole PB-qPCR Cells/sample (target Enterobacteriales, Pasteurellales, Pseudomonadaceae): 2.9E+03 Cells/sample
Post-Tinidazole PB-qPCR Cells/sample (target Fusobacterium): 2.9E+02 Cells/sample
Post-Tinidazole PB-qPCR Cells/sample (target Lachnospiracea uc & incertae sedis, Clostridium IVa, Roseburia): 2.8E+05 Cells/sample
Post-Tinidazole PB-qPCR Cells/sample (target Lactobacillaceae): 8.4E+09 Cells/sample
Post-Tinidazole PB-qPCR Cells/sample (target Megasphaera/Dialister/Veillonella): 1.8E+03 Cells/sample
Post-Tinidazole PB-qPCR Cells/sample (target Mobiluncus): 0 Cells/sample
Post-Tinidazole PB-qPCR Cells/sample (target Mycoplasmatales): 8.3E+04 Cells/sample
Post-Tinidazole PB-qPCR Cells/sample (target Peptostreptococcaceae): 0 Cells/sample
Post-Tinidazole PB-qPCR Cells/sample (target Staphylococcus): 1.0E+05 Cells/sample
Post-Tinidazole PB-qPCR Cells/sample (target Streptococcus): 8.1E+05 Cells/sample
Post-Tinidazole PB-qPCR Cells/sample (target uc Clostridiales (BVAB2&3 subset)): 0 Cells/sample
